Measurements from patent US11352322B2, “Cyclopropyl-amide compounds as dual LSD1/HDAC inhibitors” (Jubilant Epicore LLC, priority 2016, dated 2022).
Structures can show the parent of a compound that is named as a salt.

Columns and labels:
[1] = Metabolic stability in liver microsomes, MLM; settings: 1 μM, NADPH
Experimental: (§1) The microsomal suspension was prepared by adding liver microsomes to 100 mM potassium phosphate buffer (pH7.4) to give a final protein concentration of 0.5 mg/mL. The stock solution of NCE (10 mM in DMSO) was added to the microsomes to provide a final concentration of 1 μM. […] Samples were vortexed and centrifuged at 5,000 rpm for 10 min to remove proteins. Supernatant were analyzed on LC-MS/MS.

[2] = test system: MM1S; assay: Anticancer activity: Alamar Blue assay, MM1S; type: cell-based; settings: Homo sapiens, MM1.S, read-out: MM1S EC50
[3] = target: HDAC6 human recombinant enzyme (Homo sapiens (Human), UniProt Q9UBN7); assay: Histone Deacetylase Assay (BPS Biosciences), HDAC6; type: biochemical
HDAC6 human recombinant enzyme, sequence (Q9UBN7 whole entry): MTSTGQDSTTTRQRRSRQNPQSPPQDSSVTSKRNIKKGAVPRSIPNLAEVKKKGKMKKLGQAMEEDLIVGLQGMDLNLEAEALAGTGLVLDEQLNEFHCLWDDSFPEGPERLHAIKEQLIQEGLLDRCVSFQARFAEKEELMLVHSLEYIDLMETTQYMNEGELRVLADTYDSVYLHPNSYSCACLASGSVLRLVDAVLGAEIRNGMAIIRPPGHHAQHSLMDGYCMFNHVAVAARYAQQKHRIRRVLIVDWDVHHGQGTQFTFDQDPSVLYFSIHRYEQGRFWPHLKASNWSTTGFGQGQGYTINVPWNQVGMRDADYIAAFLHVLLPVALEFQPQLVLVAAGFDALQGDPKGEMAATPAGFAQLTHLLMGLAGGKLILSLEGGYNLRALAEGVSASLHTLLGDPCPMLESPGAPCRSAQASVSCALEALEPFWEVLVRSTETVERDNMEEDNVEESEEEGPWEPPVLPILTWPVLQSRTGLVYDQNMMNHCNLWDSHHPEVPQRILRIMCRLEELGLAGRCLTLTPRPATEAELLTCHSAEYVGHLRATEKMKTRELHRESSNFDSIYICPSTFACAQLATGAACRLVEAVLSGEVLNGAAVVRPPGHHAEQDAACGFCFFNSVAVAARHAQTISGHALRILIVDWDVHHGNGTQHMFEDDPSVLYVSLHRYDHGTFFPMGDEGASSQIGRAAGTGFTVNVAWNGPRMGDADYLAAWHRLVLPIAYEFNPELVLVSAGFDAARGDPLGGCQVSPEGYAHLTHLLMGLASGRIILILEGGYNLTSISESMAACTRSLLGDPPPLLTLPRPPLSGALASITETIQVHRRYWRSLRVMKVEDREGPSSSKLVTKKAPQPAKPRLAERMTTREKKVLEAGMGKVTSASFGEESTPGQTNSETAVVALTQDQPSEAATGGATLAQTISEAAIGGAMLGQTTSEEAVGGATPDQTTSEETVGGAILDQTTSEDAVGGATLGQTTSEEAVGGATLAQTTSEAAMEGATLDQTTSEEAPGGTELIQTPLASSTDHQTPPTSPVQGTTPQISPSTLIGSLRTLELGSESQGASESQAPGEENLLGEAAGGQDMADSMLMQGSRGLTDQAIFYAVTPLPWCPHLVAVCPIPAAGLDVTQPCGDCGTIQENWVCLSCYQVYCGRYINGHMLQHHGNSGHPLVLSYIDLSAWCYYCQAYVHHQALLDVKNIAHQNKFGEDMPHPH
Text: Histone Deacetylase Assay (BPS Biosciences)
Histone deacetylase assay was done as per manufacturer's instructions.

[4] = Metabolic stability in liver microsomes, HLM; settings: 1 μM, NADPH
Experimental: as §1

Structure (SMILES)	Metabolic stability MLM % remaining in 30 min [1]	EC50 [2]	IC50 [3]	Metabolic stability HLM % remaining in 30 min [4]
O=C(NO)c1cnc(N2CCC(CN[C@@H]3C[C@H]3c3ccc(F)cc3)CC2)nc1 [Example 20, 2-(4-((((1R,2S)-2-(4-fluorophenyl)cyclopropyl)amino)methyl)piperidin-1-yl)-N-hydroxypyrimidine-5-carboxamide TFA Salt]	69%	3 nM	72 nM	91%
O=C(NO)c1cnc(N2CCC(CN[C@H]3C[C@@H]3c3ccc(F)cc3)CC2)nc1 [Example 21, 2-(4-((((1S,2R)-2-(4-fluorophenyl)cyclopropyl)amino)methyl)piperidin-1-yl)-N-hydroxypyrimidine-5-carboxamide TFA Salt]	51%	9 nM	91 nM	86%
O=C(CCCCCCNC(=O)c1ccc(CNC2CC2c2ccc(F)cc2)cc1)NO (stereo not drawn) [Example 32, 4-(((2-(4-fluorophenyl)cyclopropyl)amino)methyl)-N-(7-(hydroxyamino)-7-oxoheptyl)benzamide TFA Salt]	22%	17 nM	–	41%
O=C(NO)c1ccc(CCCN2CCC(CNC3CC3c3cccc(F)c3)CC2)cc1 (stereo not drawn) [Example 49, 4-(3-(4-(((2-(3-fluorophenyl)cyclopropyl)amino)methyl)piperidin-1-yl)propyl)-N-hydroxybenzamide TFA Salt]	34%	62 nM	–	48%
O=C(NO)c1ccc(CCCN2CCC(CNC3CC3c3cnn(-c4ccccc4)c3)CC2)cc1 (stereo not drawn) [Example 68, N-hydroxy-4-(3-(4-(((2-(1-phenyl-1H-pyrazol-4-yl)cyclopropyl)amino)methyl)piperidin-1-yl)propyl)benzamide TFA Salt]	–	–	104 nM	–
O=C(NO)c1ccc(CCCn2cnc(CNC3CC3c3ccc(F)c(F)c3)c2)cc1 (stereo not drawn) [Example 73, 4-(3-(4-(((2-(3,4-difluorophenyl)cyclopropyl)amino)methyl)-1H-imidazol-1-yl)propyl)-N-hydroxybenzamide TFA Salt]	53%	540 nM	–	52%
O=C(NO)c1ccc(CC(=O)N2CCC(CNC3CC3c3ccccc3)CC2)cc1 (stereo not drawn) [Example 84, N-hydroxy-4-(2-oxo-2-(4-(((2-phenylcyclopropyl)amino)methyl)piperidin-1-yl)ethyl)benzamide TFA Salt]	40%	112 nM	45 nM	78%
O=C(NO)c1ccc(CC(=O)N2CCC(CN[C@@H]3C[C@H]3c3ccccc3)CC2)cc1 [Example 84A, N-hydroxy-4-(2-oxo-2-(4-((((1R,2S)-2-phenylcyclopropyl)amino)methyl)piperidin-1-yl)ethyl)benzamide TFA Salt]	41%	26 nM	22 nM	78%
O=C(NO)c1ccc(CC(=O)N2CCC(CN[C@H]3C[C@@H]3c3ccccc3)CC2)cc1 [Example 84B, N-hydroxy-4-(2-oxo-2-(4-((((1S,2R)-2-phenylcyclopropyl)amino)methyl)piperidin-1-yl)ethyl)benzamide TFA Salt]	45%	259 nM	25 nM	75%
O=C(NO)c1ccc(CCS(=O)(=O)N2CCC(CNC3CC3c3ccccc3)CC2)cc1 (stereo not drawn) [Example 88, N-hydroxy-4-(2-((4-(((2-phenylcyclopropyl)amino)methyl)piperidin-1-yl)sulfonyl)ethyl)benzamide TFA Salt]	–	–	77 nM	–
O=C(NO)c1ccc(CN2CCN(C(=O)CNC3CC3c3ccccc3)CC2)cc1 (stereo not drawn) [Example 91, N-hydroxy-4-((4-(2-((2-phenylcyclopropyl)amino)acetyl)piperazin-1-yl)methyl)benzamide TFA Salt]	79%	468 nM	–	85%
O=C(NO)c1ccc(CCC(=O)N2CCN(C(=O)CNC3CC3c3ccccc3)CC2)cc1 (stereo not drawn) [Example 92, N-hydroxy-4-(3-oxo-3-(4-(2-((2-phenylcyclopropyl)amino)acetyl)piperazin-1-yl)propyl)benzamide TFA Salt]	91%	1400 nM	–	95%
O=C(NO)c1ccc(OCCCN2CCC(CNC3CC3c3ccccc3)CC2)cc1 (stereo not drawn) [Example 100, N-hydroxy-4-(3-(4-(((2-phenylcyclopropyl)amino)methyl)piperidin-1-yl)propoxy)benzamide TFA Salt]	57%	17 nM	–	63%
O=C(NO)c1ccc(OCCCNC2CC2c2ccccc2)cc1 (stereo not drawn) [Example 101, N-hydroxy-4-(3-((2-phenylcyclopropyl)amino)propoxy)benzamide TFA Salt]	29%	29 nM	–	59%
O=C(NO)c1cc2c(s1)CCN(C(=O)CNC1CC1c1ccc(F)cc1)C2 (stereo not drawn) [Example 103, 5-(2-((2-(4-fluorophenyl)cyclopropyl)amino)acetyl)-N-hydroxy-4,5,6,7-tetrahydrothieno [3,2-c]pyridine-2-carboxamide TFA Salt]	53%	45 nM	41 nM	85%
O=C(NO)c1cc2c(s1)CCN(C(=O)CN[C@@H]1C[C@H]1c1ccc(F)cc1)C2 [Example 103A, 5-(2-(((1R,2S)-2-(4-fluorophenyl)cyclopropyl)amino)acetyl)-N-hydroxy-4,5,6,7-tetrahydrothieno[3,2-c]pyridine-2-carboxamide TFA Salt]	68%	52 nM	22 nM	87%
O=C(NO)c1ccc2c(c1)CN(C(=O)CCCNC1CC1c1ccc(F)cc1)C2 (stereo not drawn) [Example 108, 2-(4-((2-(4-fluorophenyl)cyclopropyl)amino)butanoyl)-N-hydroxyisoindoline-5-carboxamide TFA Salt]	85%	584 nM	–	> 95%
Nc1ccccc1NC(=O)c1ccc(CCCN2CCC(CNC3CC3c3ccccc3)CC2)cc1 (stereo not drawn) [Example 121, N-(2-aminophenyl)-4-(3-(4-(((2-phenylcyclopropyl)amino)methyl)piperidin-1-yl)propyl)benzamide TFA Salt]	42%	3 nM	–	36%
Nc1ccccc1NC(=O)c1ccc(CCCN2CCC(CNC3CC3c3ccc(F)cc3)CC2)cc1 (stereo not drawn) [Example 122, N-(2-aminophenyl)-4-(3-(4-(((2-(4-fluorophenyl)cyclopropyl)amino)methyl)piperidin-1-yl)propyl)benzamide TFA Salt]	72%	15 nM	–	77%
COc1ccc(C2CC2NCC2CCN(CCCc3ccc(C(=O)Nc4ccccc4N)cc3)CC2)cc1 (stereo not drawn) [Example 123, N-(2-aminophenyl)-4-(3-(4-(((2-(4methoxyphenyl)cyclopropyl)amino)methyl)piperidin-1-yl)propyl)benzamide TFA Salt]	72%	9 nM	–	82%
Nc1ccccc1NC(=O)c1ccc(CCCN2CCC(CNC3CC3c3ccc(F)c(F)c3)CC2)cc1 (stereo not drawn) [Example 124, N-(2-aminophenyl)-4-(3-(4-(((2-(3,4-difluorophenyl)cyclopropyl)amino)methyl)piperidin-1-yl)propyl)benzamide TFA Salt]	68%	14 nM	–	73%
Nc1ccccc1NC(=O)c1ccc(CCCN2CCC(CNC3CC3c3cnn(-c4ccccc4)c3)CC2)cc1 (stereo not drawn) [Example 129, N-(2-aminophenyl)-4-(3-(4-(((2-(1-phenyl-1H-pyrazol-4-yl)cyclopropyl)amino)methyl)piperidin-1-yl)propyl)benzamide TFA Salt]	–	–	> 10000 nM	–
Nc1ccccc1NC(=O)c1ccc(CCN2CCC(CNC3CC3c3ccccc3)CC2)cc1 (stereo not drawn) [Example 139, N-(2-aminophenyl)-4-(2-(4-(((2-phenylcyclopropyl)amino)methyl)piperidin-1-yl)ethyl)benzamide TFA Salt]	–	–	> 10000 nM	–
Nc1ccccc1NC(=O)c1cnc(CCCN2CCC(CNC3CC3c3ccccc3)CC2)s1 (stereo not drawn) [Example 154, N-(2-aminophenyl)-2-(3-(4-(((2-phenylcyclopropyl)amino)methyl)piperidin-1-yl)propyl)thiazole-5-carboxamide TFA Salt]	–	–	> 10000 nM	–
